These results are taken from US11407796B2, “Antisecretory factor 17” (LANTMÄNNEN AS-FAKTOR AB, priority 2016, dated 2022).

Where two headings read alike, the source gives them in different places. Ends that are not written are not given here. Peptide text beside a SMILES is read from it. * marks the point of attachment. Succinimide(1-Et,3-yl) = CCN1C(=O)CC(*)C1=O

For one data set, the system named is Caco-2 cells. As to the kind of experiment: AF16 stability and metabolite formation with Caco-2 cells. It is filed as in vitro ADME. The procedure: (§1) Investigation of the fate of AF16 in the presence of Caco-2 cells was performed on three separate occasions. Firstly, a quantitative measurement was performed using MRM methodology (table 1) over 0, 15, 30 and 60 min. Here, AF16 or its possible sulfonic acid metabolite was monitored both in the apical and in the basolateral compartment (not shown). The second experiment was a qualitative determination of the fate of AF16 during a 60 min incubation. 50 μM AF16 in HBSS buffer was incubated at the apical side of the Caco-2 cell monolayer and 100 μl aliquots was extracted at 5, 10, 20, 30 and 60 min. The sample was placed on a 96-well plate containing 100 μl MeCN/H2O. The plate was sealed and frozen until full-scan UPLC-MS analysis (see below and table 2). The third experiment was a mirror of the second and the only difference was that a HBSS solution of AF16:AF16 IS (1:1) was used, to aid in the structure elucidation.
(§2) All samples from the different assays were analyzed by UPLC-MS/MS. The following system was used, a Waters XEVO TQ triple-quadrupole mass spectrometer (electrospray ionization, ESI) coupled to a Waters Acquity UPLC (VVaters Corp.). For chromatographic separation a general gradient was used (1% mobile phase B to 50% over 3 min total run) on a C18 BEH 1.7 μm column 2×100 mm (VVaters Corp.). Mobile phase A consisted of 0.05% TFA and mobile phase B 100% acetonitrile. The flow rate was 0.5 ml/min. In the full-scan MS analysis the same chromatographic settings was used except that 10 μl was injected (full loop). The MS was set to scan for ions in the 100-400 or 400-700 m/z window using the cone voltage in table 1.
(§3) It is well known that in the intestine, and as such at the apical side of Caco-2 cells, brush-border peptidases exist. To further investigate this, a separate experiment was designed. Caco-2 cells were exposed at the apical side to 50 μM AF16, with or without a protease inhibitor cocktail, and were sampled over 1 h.

Data set [1] can be described thus: AF16 metabolite identification in human plasma. It counts as in vitro ADME. The procedure: (§4) (10 μM incubation conc.).
(§5) The flow rate was 0.5 ml/min.
(§6) AF16 and the isotopically labelled peptide in similar quantity were incubated in plasma of rat and human as described above. For analysis of full scan MS data, the metabolite identification software from Sciex, Lightsight, was used, which compares the incubated MS response to the quality control (QC) sample and assigns apparent peaks as metabolites with specific mass over charge (m/z) values. The software is currently not optimal to use with multi-charged compounds such as peptides so the hit-rate of metabolite detection is fairly high and manual assessment of each found peak had to be performed. The largest metabolite peak areas were then rank ordered and in some cases verified by MS/MS fragmentation. Skyline methodology was used to predict fragmentation of the identified peptides, but also aided in creating sensitive MRM methods so that low amounts could be monitored.

Data set [2] in a line: AF16 metabolite identification in rat plasma. It is filed as in vitro ADME. The procedure: as §4, §5, §6
The nature of data set [3]: AF16 and AF16-NEM stability in human plasma. It is filed as in vitro ADME. The note with it: for half-life: 37° C. The procedure: Test of AF16 and AF16-NEM stability in plasma was performed using pooled human plasma (4 donors, two female+two male) in HPLC glass vials at 37° C. (20 μM incubation conc.). Four different matrices were tested: Plasma: isotonic 67 mM potassium phosphate pH 7.4 (KP) (1:1), plasma:KP+0.1 mM DTT, KP and KP+0.1 mM DTT. Incubation times were 0, 1.5 and 3 h. At the indicated times a 50 μl aliquot was extracted and quenched/precipitated in 150 μl ice-cold methanol and frozen until analysis. Relative quantification was performed UPLC-MS/MS.
AF16, the stable isotope labeled (SIL) AF16 and the alkylated analog AF16-NEM were incubated at 1 μM in human plasma: 0.1M potassium phosphate pH 7.4 (KP) (1:1), human plasma: KP (1:1)+1 mM DTT, KP or KP+1 mM DTT over 3 h at 37° C. to investigate stability. KP was included to provide buffer capacity to the plasma and to not confuse the results with pH related effects.

Data set [4] in a line: AF16 stability and metabolite formation with Caco-2 cells. It counts as in vitro ADME. The settings on record: Caco-2, 50 μM, apical side of Caco-2 cells. The procedure: as §1, §2, §3
For data set [5] the following is noted: plasma.
A short description of data set [6]: Kinetics of AF16 and metabolites in plasma with ZnSO4 precipitant +/-DTT. It counts as in vitro ADME, human, rat. The note with it: plasma precipitated with ZnSO4, +/−DTT. The text has this: The kinetics shown in FIG. 13 was surprising given the fact that DTT was used in the quenching solution with TCA, although it is likely that the reducing capability of DTT is lowered in acidic conditions. It was therefore tested if the same pattern occurred when using a neutral precipitant ZnSO4 (without NaOH). This precipitation method is not as efficient but would hopefully give more information on the formation of the major disulfide products.

[7] abbreviates: 30 min incubation of AF16, (+) inhibitor cocktail.
[8] abbreviates: 30 min incubation of AF16, (−) inhibitor cocktail.
[9] abbreviates: 60 min incubation of AF16, (+) inhibitor cocktail.
[10] abbreviates: 60 min incubation of AF16, (−) inhibitor cocktail.
Setting [11] is: human plasma:KP (1:1) + DTT, read-out: in vitro half-life (t½) with DTT (converted).
The mark [12] stands for this setting: human plasma:KP pH 7.4 (1:1), no DTT, read-out: in vitro half-life (t½) (converted).

For `CC(C)C[C@H](NC(=O)CNC(=O)[C@@H](NC(=O)[C@H](CC(N)=O)NC(=O)[C@H](CC(N)=O)NC(=O)[C@H](CCC(=O)O)NC(=O)[C@@H]1CCCN1C(=O)[C@H](CC(N)=O)NC(=O)[C@H](CO)NC(=O)[C@H](CCCNC(=N)N)NC(=O)[C@@H](NC(=O)[C@H](CCCCN)NC(=O)[C@H](CO)NC(=O)[C@@H](N)Cc1c[nH]cn1)[C@@H](C)O)C(C)C)C(=O)O` [M3, HSK TRSNP ENNVG L] (H-HSKTRSNPENNVGL-OH; N-terminus and C-terminus assumed), the “Tentative amounts (%) of molecular species” value in the data set on Caco-2 cells (setting [7]) came out at 2%; with Caco-2 cells (setting [8]) it was 38%; with Caco-2 cells (setting [9]) it was 4%; with Caco-2 cells (setting [10]), 24%. Also, the “% of QC area at 30 min incubation time” value in data set [1] is recorded as 0.9%; in data set [2], 0.4%.

Turning to `CC(C)C[C@H](NC(=O)CNC(=O)[C@@H](NC(=O)[C@H](CC(N)=O)NC(=O)[C@H](CC(N)=O)NC(=O)[C@H](CCC(=O)O)NC(=O)[C@@H]1CCCN1C(=O)[C@H](CC(N)=O)NC(=O)[C@H](CO)NC(=O)[C@H](CCCNC(=N)N)NC(=O)[C@@H](NC(=O)[C@H](CCCCN)NC(=O)[C@H](CO)NC(=O)[C@H](Cc1c[nH]cn1)NC(=O)[C@H](CS)NC(=O)[C@@H](N)C(C)C)[C@@H](C)O)C(C)C)C(=O)O` [AF16, VCHSKTRSNPENNVGL] (H-VCHSKTRSNPENNVGL-OH; N-terminus and C-terminus assumed), the half-life in data set [3] (setting [11]) was 66 min; in data set [3] (setting [12]) it was 24 min; in data set [4] (with protease inhibitor cocktail (Bestatin, Diprotin A, Captopril), read-out: t½ of degradation with inhibitor cocktail) it was 57 min; in data set [4] (without inhibitor cocktail, read-out: t½ of degradation), 8 min; in data set [5] it was at most 10 min. Further, the “t½ of degradation with inhibitor cocktail” value in the data set on Caco-2 cells (50 μM, apical side of Caco-2 cells, with protease inhibitor cocktail (Bestatin, Diprotin A, Captopril)) is given as 55 min. The “Tentative amounts (%) of molecular species” value came to 79% in the data set with Caco-2 cells (setting [7]), 6% in the data set on Caco-2 cells (setting [8]), 63% with Caco-2 cells (setting [9]) and 1% in the data set with Caco-2 cells (setting [10]). For the same molecule, the figures for the “% of QC area at 30 min incubation time” value in data set [1] and in data set [2] were 1% and 4%, respectively.

With “C[SCC]HSKTRSNPENNVGL (not fully specified (N-terminus); printed as C[SCC]HSKTRSNPENNVGL; also: [SCC] on the N-terminal Cys, meaning not given here) [M10]”, the “resilience of the disulfide against DTT reduction” value in data set [6] is given as “resilient”.

In the case of `CCN1C(=O)CC(SC[C@H](NC(=O)[C@@H](N)C(C)C)C(=O)N[C@@H](Cc2c[nH]cn2)C(=O)N[C@@H](CO)C(=O)N[C@@H](CCCCN)C(=O)N[C@H](C(=O)N[C@@H](CCCNC(=N)N)C(=O)N[C@@H](CO)C(=O)N[C@@H](CC(N)=O)C(=O)N2CCC[C@H]2C(=O)N[C@@H](CCC(=O)O)C(=O)N[C@@H](CC(N)=O)C(=O)N[C@@H](CC(N)=O)C(=O)N[C@H](C(=O)NCC(=O)N[C@@H](CC(C)C)C(=O)O)C(C)C)[C@@H](C)O)C1=O` (stereo partly shown) [AF16-NEM] (H-VC(Succinimide(1-Et,3-yl))HSKTRSNPENNVGL-OH; N-terminus and C-terminus assumed), the “fold higher stability than AF16” value in data set [3] (human plasma, no DTT) was about 5 fold. Further, the half-life was 252 min in data set [3] (setting [11]) and 108 min in data set [3] (setting [12]).
